ChEMBL document CHEMBL1138993, “Thyroid receptor ligands. Part 5: novel bicyclic agonist ligands selective for the thyroid hormone receptor beta” (Bioorg Med Chem Lett, 2006)

Columns and labels:
[1] = target: T1, Thyroid hormone receptor alpha (Homo sapiens, UniProt P10827)
T1 sequence (P10827 whole entry): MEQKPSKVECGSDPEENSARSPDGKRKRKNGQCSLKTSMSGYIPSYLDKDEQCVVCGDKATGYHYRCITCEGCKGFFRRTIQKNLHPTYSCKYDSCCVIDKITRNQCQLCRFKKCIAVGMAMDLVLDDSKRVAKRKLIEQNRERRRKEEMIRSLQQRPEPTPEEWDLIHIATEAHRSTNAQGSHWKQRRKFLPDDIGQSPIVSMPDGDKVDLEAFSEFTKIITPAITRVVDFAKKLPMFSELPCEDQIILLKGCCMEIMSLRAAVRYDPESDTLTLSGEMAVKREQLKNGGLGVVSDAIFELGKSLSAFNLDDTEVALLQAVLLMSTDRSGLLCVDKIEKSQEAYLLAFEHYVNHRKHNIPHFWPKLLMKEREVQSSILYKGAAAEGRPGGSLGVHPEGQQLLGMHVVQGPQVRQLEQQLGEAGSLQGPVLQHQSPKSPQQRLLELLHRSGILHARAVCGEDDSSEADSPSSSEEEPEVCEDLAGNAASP
Description: Inhibition of human TR-alpha-1 by radioligand binding assay

[2] = target: T1, Thyroid hormone receptor alpha; remark: listed apart in the source
Description: Efficacy against TRAF-alpha-1 reporter cells

[3] = target: T2, Thyroid hormone receptor beta (Homo sapiens, UniProt P10828)
T2 sequence (P10828 whole entry): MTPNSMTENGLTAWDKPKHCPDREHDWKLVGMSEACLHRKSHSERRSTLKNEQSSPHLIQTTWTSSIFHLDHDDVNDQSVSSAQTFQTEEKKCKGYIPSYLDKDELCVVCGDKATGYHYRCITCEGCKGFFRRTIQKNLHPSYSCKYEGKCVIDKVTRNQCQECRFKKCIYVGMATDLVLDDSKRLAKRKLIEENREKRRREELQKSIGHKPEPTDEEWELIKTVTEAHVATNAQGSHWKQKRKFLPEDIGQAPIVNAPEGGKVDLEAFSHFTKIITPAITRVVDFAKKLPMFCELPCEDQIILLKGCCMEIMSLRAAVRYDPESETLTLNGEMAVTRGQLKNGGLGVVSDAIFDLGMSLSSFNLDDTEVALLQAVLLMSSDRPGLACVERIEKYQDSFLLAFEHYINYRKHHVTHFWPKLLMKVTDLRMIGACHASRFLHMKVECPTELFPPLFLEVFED
Description: Inhibition of human TR-beta-1 by radioligand binding assay

[4] = target: T2, Thyroid hormone receptor beta; remark: listed apart in the source
Description: Efficacy against TRAF-beta-1 reporter cells

Structure (SMILES) | IC50 [1] | EC50 [2] | IC50 [3] | EC50 [4]
CC(C)c1cc(Oc2c(Cl)cc3[nH]c(C(=O)O)cc3c2Cl)ccc1O | 0.0014 µM | 0.01 µM | – | –
CC(C)c1cc(Oc2c(Cl)cc3[nH]c(C(=O)O)cc(=O)c3c2Cl)ccc1O | 3.5 µM | – | 0.87 µM | –
Cc1cc2[nH]c(C(=O)O)cc(=O)c2c(C)c1Oc1ccc(O)c(C(C)C)c1 | 0.62 µM | – | 0.24 µM | –
CC(C)c1cc(Oc2c(Br)cc3c(c2Br)CC(C(=O)O)C3)ccc1O (stereo not given) | 0.038 µM | 0.0041 µM | 0.0085 µM | 0.0043 µM
CC(C)c1cc(Oc2c(Br)cc3nc(C(=O)O)cc(O)c3c2Br)ccc1O | 0.25 µM | – | 0.051 µM | –
Cc1cc2nc(C(=O)O)ccc2c(C)c1Oc1ccc(O)c(C(C)C)c1 | 0.2 µM | 0.083 µM | 0.015 µM | 0.049 µM
CC(C)c1cc(Oc2c(Br)cc3[nH]c(C(=O)O)cc3c2Br)ccc1O | 0.0025 µM | 0.01 µM | 0.00028 µM | 0.0042 µM
